For assay [1], the target named is Epidermal growth factor receptor (Homo sapiens, UniProt P00533). As to the kind of experiment: Inhibition of N-terminal GST fused EGFR (668 to 1091 residues) (unknown origin) using poly (Glu-Tyr) E4Y1 peptide as substrate incubated for 2 hrs by ADP-Glo reagent method.
Assay [2] addresses Receptor tyrosine-protein kinase erbB-2 (Homo sapiens, UniProt P04626). The assay can be described thus: Inhibition of N-terminal GST fused HER2 (679 to 1255 residues) (unknown origin) using poly (Glu-Tyr) E4Y1 peptide as substrate measured after 4 hrs by ADP-Glo reagent method.

Chain of Receptor tyrosine-protein kinase erbB-2 (P04626 whole entry, the tested form may be a part): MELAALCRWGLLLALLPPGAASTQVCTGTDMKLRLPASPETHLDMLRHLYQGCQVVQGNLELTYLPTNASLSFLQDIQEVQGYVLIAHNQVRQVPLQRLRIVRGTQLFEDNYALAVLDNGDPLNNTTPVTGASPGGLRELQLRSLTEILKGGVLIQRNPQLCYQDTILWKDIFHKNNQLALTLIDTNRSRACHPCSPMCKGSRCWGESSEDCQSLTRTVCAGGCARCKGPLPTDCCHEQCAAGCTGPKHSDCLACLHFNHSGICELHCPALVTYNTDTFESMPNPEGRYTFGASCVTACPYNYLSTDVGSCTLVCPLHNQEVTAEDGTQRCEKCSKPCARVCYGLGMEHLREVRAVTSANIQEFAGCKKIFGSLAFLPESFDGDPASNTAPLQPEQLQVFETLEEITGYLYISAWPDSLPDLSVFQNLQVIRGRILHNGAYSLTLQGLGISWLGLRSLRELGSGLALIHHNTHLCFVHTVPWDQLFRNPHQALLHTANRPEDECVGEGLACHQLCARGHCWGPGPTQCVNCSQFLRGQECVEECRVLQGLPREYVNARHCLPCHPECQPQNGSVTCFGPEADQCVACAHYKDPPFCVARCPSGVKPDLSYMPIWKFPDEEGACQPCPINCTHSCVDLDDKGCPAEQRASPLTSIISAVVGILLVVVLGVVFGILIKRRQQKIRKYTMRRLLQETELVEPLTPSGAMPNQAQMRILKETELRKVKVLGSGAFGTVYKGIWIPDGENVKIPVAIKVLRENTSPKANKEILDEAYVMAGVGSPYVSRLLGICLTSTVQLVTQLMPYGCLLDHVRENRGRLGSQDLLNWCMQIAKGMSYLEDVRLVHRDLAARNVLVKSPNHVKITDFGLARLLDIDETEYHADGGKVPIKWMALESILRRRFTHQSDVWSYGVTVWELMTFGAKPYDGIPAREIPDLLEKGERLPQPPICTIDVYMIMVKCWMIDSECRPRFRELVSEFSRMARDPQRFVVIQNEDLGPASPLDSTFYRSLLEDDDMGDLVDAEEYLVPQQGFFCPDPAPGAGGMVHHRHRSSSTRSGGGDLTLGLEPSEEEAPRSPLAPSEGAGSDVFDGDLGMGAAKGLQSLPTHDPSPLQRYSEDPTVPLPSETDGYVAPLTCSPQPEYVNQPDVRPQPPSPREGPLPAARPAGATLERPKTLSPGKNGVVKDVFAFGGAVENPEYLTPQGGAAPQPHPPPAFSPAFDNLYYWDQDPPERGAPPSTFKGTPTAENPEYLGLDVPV
Chain of Epidermal growth factor receptor (P00533 whole entry, the tested form may be a part): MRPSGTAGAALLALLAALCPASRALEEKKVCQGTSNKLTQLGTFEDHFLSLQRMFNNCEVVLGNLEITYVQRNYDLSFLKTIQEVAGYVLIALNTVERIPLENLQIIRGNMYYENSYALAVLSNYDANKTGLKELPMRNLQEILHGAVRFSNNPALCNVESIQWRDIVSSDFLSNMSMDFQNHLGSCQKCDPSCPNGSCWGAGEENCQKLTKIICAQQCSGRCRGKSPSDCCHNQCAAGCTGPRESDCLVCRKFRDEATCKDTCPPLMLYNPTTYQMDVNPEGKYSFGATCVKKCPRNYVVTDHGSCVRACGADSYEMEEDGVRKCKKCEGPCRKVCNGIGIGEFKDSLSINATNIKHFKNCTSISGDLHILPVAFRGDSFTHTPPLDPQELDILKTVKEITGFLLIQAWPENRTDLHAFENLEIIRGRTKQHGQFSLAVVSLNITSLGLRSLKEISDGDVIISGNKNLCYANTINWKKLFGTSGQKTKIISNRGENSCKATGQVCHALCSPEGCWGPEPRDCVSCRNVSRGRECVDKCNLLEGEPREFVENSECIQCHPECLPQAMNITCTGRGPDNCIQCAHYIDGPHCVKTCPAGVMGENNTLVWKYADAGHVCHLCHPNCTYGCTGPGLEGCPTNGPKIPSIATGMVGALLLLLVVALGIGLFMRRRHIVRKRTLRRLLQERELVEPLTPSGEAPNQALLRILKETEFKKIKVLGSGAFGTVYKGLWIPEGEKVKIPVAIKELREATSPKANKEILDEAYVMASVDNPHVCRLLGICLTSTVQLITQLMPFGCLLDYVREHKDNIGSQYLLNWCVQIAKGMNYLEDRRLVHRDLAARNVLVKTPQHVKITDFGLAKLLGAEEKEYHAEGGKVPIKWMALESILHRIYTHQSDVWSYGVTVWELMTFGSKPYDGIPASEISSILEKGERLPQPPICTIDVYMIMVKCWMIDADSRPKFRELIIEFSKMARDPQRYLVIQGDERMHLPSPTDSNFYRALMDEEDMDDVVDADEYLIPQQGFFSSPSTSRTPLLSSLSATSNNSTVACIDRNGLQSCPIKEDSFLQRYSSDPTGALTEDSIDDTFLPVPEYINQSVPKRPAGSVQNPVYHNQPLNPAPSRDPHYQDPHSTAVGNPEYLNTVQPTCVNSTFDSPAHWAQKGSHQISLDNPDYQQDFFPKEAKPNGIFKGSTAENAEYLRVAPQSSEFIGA

Regarding `Cc1cc(Nc2ncnc3ccc(NC4=NC(C)(C)CO4)cc23)ccc1Oc1ccn2ncnc2c1` [TUCATINIB], the figures for the IC50 in assay [1] and in assay [2] were 449 nM and 6.9 nM, respectively.

These data come from ChEMBL document CHEMBL5143507, “Small Molecule Kinase Inhibitor Drugs (1995-2021): Medical Indication, Pharmacology, and Synthesis” (J Med Chem, 2022).
